How the values were obtained:
SK-MEL-2 (Melanoma) [1] = assay: Bliss excess, mean over the matrix (fraction); higher = more synergy
Summary of the method: (§1)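 Bliss excess equals the observed combination effect minus the expected value EA + EB − EA·EB, where EA and EB are the effects of each agent alone. Combination Emax is the second-highest inhibition within the matrix. Inhibition was scaled from CellTiter-Glo 2.0 luminescence, with 0 set by vehicle wells and 1 by blank wells, after 72 hours of two-drug dosing of cells plated in 1536-well plates.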

NB12 (Neuroblastoma) [2] = assay: as above
Summary of the method: as §1

[3] = system: CAL-120 (Breast Carcinoma); assay: combination Emax (second highest fraction inhibited in the dose matrix, 72 h); higher = more inhibition; extreme values may be limits of the assay
Summary of the method: as §1

WM278 (Melanoma) = assay: as above
Summary of the method: as §1

[4] = system: KE-37 (T-Lymphoblastic Leukemia); assay: as above
Summary of the method: as §1

SK-MEL-2 (Melanoma) [5] = assay: as above
Summary of the method: as §1

NB12 (Neuroblastoma) [6] = assay: as above
Summary of the method: as §1

[7] = system: NCI-H23 (Lung Adenocarcinoma); assay: as above
Summary of the method: as §1

GB-1 (Glioblastoma) = assay: as above
Summary of the method: as §1

[8] = system: TE-8 (Esophageal Squamous Cell Carcinoma); assay: as above
Summary of the method: as §1

SMILES | Bliss excess (SK-MEL-2 (Melanoma) [1]) | Bliss excess (NB12 (Neuroblastoma) [2]) | combination Emax [3] | combination Emax (WM278 (Melanoma)) | combination Emax [4] | combination Emax (SK-MEL-2 (Melanoma) [5]) | combination Emax (NB12 (Neuroblastoma) [6]) | combination Emax [7] | combination Emax (GB-1 (Glioblastoma)) | combination Emax [8]
CN(C)CCCOc1ccc(-c2ccc3ncc4c(c3c2)n(C2CCOCC2)c(=O)n4C)cn1 [AZD0156] + O=C(c1cc(Cc2n[nH]c(=O)c3ccccc23)ccc1F)N1CCN(C(=O)C2CC2)CC1 [Olaparib] (first compound max 3 µM, partner max 3 µM) | -0.045 | 0.0534 | 0.29 | 0.209 | 0.415 | 0.0599 | 0.363 | 0.117 | 0.238 | 
C=CCn1c(=O)c2cnc(Nc3ccc(N4CCN(C)CC4)cc3)nc2n1-c1cccc(C(C)(C)O)n1 [AZD1775] + C1CN(CCC1(C(=O)N[C@@H](CCO)C2=CC=C(C=C2)Cl)N)C3=NC=NC4=C3C=CN4 [Capivasertib] (first compound max 3 µM, partner max 3 µM) | -0.0472 | -0.0491 | 0.727 | 0.389 | 1 | 0.637 | 0.746 | 0.908 | 0.625 | 
COc1nnc2ccc(N3CCC(c4ccc(OCCN5CCN(C)C(=O)[C@H]5C)cc4)CC3)nn12 [AZD5153] + C=CCn1c(=O)c2cnc(Nc3ccc(N4CCN(C)CC4)cc3)nc2n1-c1cccc(C(C)(C)O)n1 [AZD1775] (first compound max 1 µM, partner max 1 µM) | -0.116 | -0.0313 | 0.489 | 0.581 | 0.978 | 0.635 | 0.958 | 0.963 | 0.641 | 0.654
COc1nnc2ccc(N3CCC(c4ccc(OCCN5CCN(C)C(=O)[C@H]5C)cc4)CC3)nn12 [AZD5153] + CC1(C)CCC(CN2CCN(c3ccc(C(=O)NS(=O)(=O)c4ccc(NCC5CCOCC5)c([N+](=O)[O-])c4)c(Oc4cnc5[nH]ccc5c4)c3)CC2)=C(c2ccc(Cl)cc2)C1 [Venetoclax] (first compound max 1 µM, 7x7, partner max 1 µM) | -0.0035 | 0.0928 | 0.336 | 0.447 | 0.7 | 0.519 | 0.971 | 0.651 | 0.256 | 0.491
CS(=O)(=O)CCNCc1ccc(-c2ccc3ncnc(Nc4ccc(OCc5cccc(F)c5)c(Cl)c4)c3c2)o1 [Lapatinib] + Cn1cnc2c(F)c(Nc3ccc(Br)cc3Cl)c(C(=O)NOCCO)cc21 [Selumetinib] (first compound max 10 µM, 7x7, partner max 10 µM) | 0.0062 | -0.11 |  |  |  | 0.793 | 0.354 |  |  | 0.521
CS(=O)(=O)CCNCc1ccc(-c2ccc3ncnc(Nc4ccc(OCc5cccc(F)c5)c(Cl)c4)c3c2)o1 [Lapatinib] + NC1(c2ccc(-c3nc4ccn5c(=O)[nH]nc5c4cc3-c3ccccc3)cc2)CCC1 [MK-2206] (first compound max 10 µM, 7x7, partner max 10 µM) | -0.0096 | -0.0253 |  |  |  | 0.692 | 0.843 | 0.338 |  | 0.52
CCc1c2c(nc3ccc(O)cc13)-c1cc3c(c(=O)n1C2)COC(=O)[C@]3(O)CC [SN-38] + CN(C)CCCOc1ccc(-c2ccc3ncc4c(c3c2)n(C2CCOCC2)c(=O)n4C)cn1 [AZD0156] (first compound max 0.3 µM, 7x7, partner max 1 µM) |  |  | 0.381 | 0.635 | 1 |  |  | 0.554 | 0.735 | 0.69
CC(=O)Nc1cccc(-n2c(=O)n(C3CC3)c(=O)c3c(Nc4ccc(I)cc4F)n(C)c(=O)c(C)c32)c1 [Trametinib] + Cc1nc(-c2cn3c(n2)-c2ccc(-c4cnn(C(C)(C)C(N)=O)c4)cc2OCC3)n(C(C)C)n1 [Taselisib] (first compound max 1 µM, 7x7, partner max 10 µM) |  |  | 0.564 | 0.983 | 0.676 |  |  | 0.686 | 0.845 | 0.782
CC1(C)CCC(CN2CCN(c3ccc(C(=O)NS(=O)(=O)c4ccc(NCC5CCOCC5)c([N+](=O)[O-])c4)c(Oc4cnc5[nH]ccc5c4)c3)CC2)=C(c2ccc(Cl)cc2)C1 [Venetoclax] + C1CN(CCC1(C(=O)N[C@@H](CCO)C2=CC=C(C=C2)Cl)N)C3=NC=NC4=C3C=CN4 [Capivasertib] (first compound max 1 µM, 7x7, partner max 3 µM) |  |  | 0.227 | 0.232 | 0.695 |  |  | 0.119 | 0.185 | 0.424
CC1(C)CCC(CN2CCN(c3ccc(C(=O)NS(=O)(=O)c4ccc(NCC5CCOCC5)c([N+](=O)[O-])c4)c(Oc4cnc5[nH]ccc5c4)c3)CC2)=C(c2ccc(Cl)cc2)C1 [Venetoclax] + C=CCn1c(=O)c2cnc(Nc3ccc(N4CCN(C)CC4)cc3)nc2n1-c1cccc(C(C)(C)O)n1 [AZD1775] (first compound max 1 µM, partner max 1 µM) |  |  | 0.31 | 0.436 | 1 |  |  | 0.855 | 0.296 | 0.883
CC1(C)CCC(CN2CCN(c3ccc(C(=O)NS(=O)(=O)c4ccc(NCC5CCOCC5)c([N+](=O)[O-])c4)c(Oc4cnc5[nH]ccc5c4)c3)CC2)=C(c2ccc(Cl)cc2)C1 [Venetoclax] + CCN(CCO)CCCOc1ccc2c(Nc3cc(CC(=O)Nc4cccc(F)c4)[nH]n3)ncnc2c1 [AZD2811] (first compound max 1 µM, 7x7, partner max 1 µM) |  |  | 0.153 | 0.337 | 1 |  |  | 0.184 | 0.094 | 0.396
CC1(C)CCC(CN2CCN(c3ccc(C(=O)NS(=O)(=O)c4ccc(NCC5CCOCC5)c([N+](=O)[O-])c4)c(Oc4cnc5[nH]ccc5c4)c3)CC2)=C(c2ccc(Cl)cc2)C1 [Venetoclax] + CN(C)CCCOc1ccc(-c2ccc3ncc4c(c3c2)n(C2CCOCC2)c(=O)n4C)cn1 [AZD0156] (first compound max 1 µM, 7x7, partner max 1 µM) |  |  | 0.167 | 0.211 | 0.196 |  |  | 0.122 | 0.115 | 0.519
CC1(C)CCC(CN2CCN(c3ccc(C(=O)NS(=O)(=O)c4ccc(NCC5CCOCC5)c([N+](=O)[O-])c4)c(Oc4cnc5[nH]ccc5c4)c3)CC2)=C(c2ccc(Cl)cc2)C1 [Venetoclax] + COc1cc(Nc2ncc3c(n2)-c2ccc(Cl)cc2C(c2c(F)cccc2OC)=NC3)ccc1C(=O)O [Alisertib] (first compound max 1 µM, 7x7, partner max 10 µM) |  |  | 0.384 | 0.362 | 0.955 |  |  | 0.464 | 0.478 | 0.673
CC1(C)CCC(CN2CCN(c3ccc(C(=O)NS(=O)(=O)c4ccc(NCC5CCOCC5)c([N+](=O)[O-])c4)c(Oc4cnc5[nH]ccc5c4)c3)CC2)=C(c2ccc(Cl)cc2)C1 [Venetoclax] + C[C@@H]1COCCN1C2=NC(=NC(=C2)C3(CC3)[S@](=N)(=O)C)C4=C5C=CNC5=NC=C4 [AZD6738] (first compound max 1 µM, 7x7, partner max 10 µM) |  |  | 0.384 | 0.623 | 1 |  |  | 0.822 | 0.424 | 0.793
CC1(C)CCC(CN2CCN(c3ccc(C(=O)NS(=O)(=O)c4ccc(NCC5CCOCC5)c([N+](=O)[O-])c4)c(Oc4cnc5[nH]ccc5c4)c3)CC2)=C(c2ccc(Cl)cc2)C1 [Venetoclax] + C[C@@H](Nc1cc(F)cc(F)c1)c1cc(C(=O)N(C)C)cc2c(=O)cc(N3CCOCC3)oc12 [AZD8186] (first compound max 1 µM, 7x7, partner max 3 µM) |  |  | 0.12 | 0.306 | 0.356 |  |  | 0.148 | 0.168 | 0.401
CC1(C)CCC(CN2CCN(c3ccc(C(=O)NS(=O)(=O)c4ccc(NCC5CCOCC5)c([N+](=O)[O-])c4)c(Oc4cnc5[nH]ccc5c4)c3)CC2)=C(c2ccc(Cl)cc2)C1 [Venetoclax] + Cc1cc2ncnn2cc1Nc1ncc2c(n1)n(C1CCOCC1)c(=O)n2C [AZD7648] (first compound max 1 µM, 7x7, partner max 10 µM) |  |  | 0.125 | 0.269 | 0.404 |  |  | 0.184 | 0.135 | 0.401
CC1(C)CCC(CN2CCN(c3ccc(C(=O)NS(=O)(=O)c4ccc(NCC5CCOCC5)c([N+](=O)[O-])c4)c(Oc4cnc5[nH]ccc5c4)c3)CC2)=C(c2ccc(Cl)cc2)C1 [Venetoclax] + Cn1cnc2c(F)c(Nc3ccc(Br)cc3Cl)c(C(=O)NOCCO)cc21 [Selumetinib] (first compound max 1 µM, 7x7, partner max 3 µM) |  |  | 0.106 | 0.633 | 0.352 |  |  | 0.264 | 0.0816 | 0.457

Reference: the supplement of paper PMC11061612
